The nature of data set [1]: Crystal form by wide-angle X-ray diffraction (XRD). It is filed as physicochemical. The settings on record: XRD of powder. How it is done:
The crystal form of the CLG powder prepared above is determined by wide-angle x-ray diffraction (XRD). First, 1.00 g of CLG powder was placed in a sample carrier, and the powder filling was pressed by a slide. Then, the sample was placed on an X-ray diffractometer (MaxRC, Rigaku, Japan), and X-ray diffraction was performed by using Kα radiation (λ=1.541838A) at scan rate of 10°/min and 20 scanning angle from 5° to 60°. The peaks of X-ray diffraction data were analyzed in accordance with the Joint Committee on Powder Diffraction Standards (JCPDS).

Data set [2] can be described thus: Water solubility of the divalent metal salt powder. The note with it: 25° C., dried powder.
For data set [3] the following is noted: filtrate after reaction with CaO, before drying.
Experimental: After mixing and stirring for 1 hour, the solution was filtered, and the filtrate was collected.

As for `O=C([O-])[C@H](O)[C@@H](O)[C@H](O)[C@H](O)CO.O=S(=O)([O-])O.[Ca+2]` [Example 3, Calcium Sulfate Gluconate], the Crystal form result in data set [1] is given as “Amorphous”; in data set [1] (listed as CSG) it was “amorphous”. The “Solubility (water solubility)” value in data set [2] is recorded as 30.1~31.7 g/100 ml; in data set [2] (listed as CSG), 30.1˜31.7 g/100 ml. For the same compound, the “pH value of the filtrate solution” value in data set [3] worked out at 9.3.
As for “Calcium Gluconate [Comparative Example 2, reference compound]”, the Crystal form entry is reported as “Crystalline” in data set [1] and “crystalline” in data set [1] (listed as CG).
Consider `CC(O)C(=O)[O-].CC(O)C(=O)[O-].[Ca+2]` (stereo not drawn) [Comparative Example 3, Calcium Lactate, reference compound], for which the Crystal form entry in data set [1] is recorded as “Crystalline”; in data set [1] (listed as CL), “crystalline”.
As to `O.O.O=S(=O)([O-])[O-].[Ca+2]` [Comparative Example 1, Calcium Sulfate Dehydrate, reference compound], in data set [1], the Crystal form entry is recorded as “Crystalline”.
Take `CC(O)C(=O)[O-].O=C([O-])[C@H](O)[C@@H](O)[C@H](O)[C@H](O)CO.[Ca+2]` [Example 1, Calcium Lactate Gluconate]: the Crystal form entry is on record as “Amorphous” in data set [1] and “amorphous” in data set [1] (listed as CLG). For the same compound, the entries for the “Solubility (water solubility)” value in data set [2] and in data set [2] (listed as CLG) were 35.7~41.0 g/100 ml and 35.7˜41.0 g/100 ml, respectively. The “pH value of the filtrate solution” value in data set [3] came to 9.8.
With Calcium Lactate Sulfate [Example 2], the Crystal form result in data set [1] is “Amorphous”; in data set [1] (listed as CLS) it was “amorphous”. Further, the “pH value of the filtrate solution” value in data set [3] turned out to be 9.7.

Source of the values: US8298328B2, “Amorphous metal salt for facilitating the handling property of portland cements and dental applications thereof” (Taipei Medical University, priority 2008, dated 2012).
